Where two headings read alike, the source gives them in different places.
What was measured:
[1] = molecular target: σ-receptor; assay: σ-receptor binding, [^3 H] DTG displacement on rat brain membranes (Table 1); design: species or system Sprague-Dowley rats; conditions: for Ki: hydrochloride, [^3 H] DTG 3 nM, 25° C., 60 minutes, rat brain membrane, read-out: Sigma [^3 H] DTG Ki
[2] = test system: σ-receptor; conditions: cited from earlier work
[3] = test system: apomorphine induced climbing; assay: Suppressive action on apomorphine induced climbing (Table 2); format: in vivo, ICR mice, male; conditions: hydrochloride; 30 mg/kg, p.o.; 1 hour before apomorphine 2 mg/kg s.c.; climbing observed 3 minutes after 20-23 minutes
Method: Administering dopamine agohist, apomorphine in mouse resulted various abnormal behaviors, and especially, a climbing the cage has been known to be correlated with human schizophrenia. Therefore, a drug showing suppressire activity for apomorphine induced climbing in mice can be presumed to be effective as antischizophrenia activity on humans.
The compounds of the present invention were administered orally in ICR mice, male (Charles River Corp.), and after 1 hour, apomorphine 2 mg/kg was administered subcutaneously. Climbing behaviors of 3 minutes after 20-23 minutes of apomorphine administration were observed. Climbing behavior was observed by entering the mice in stainless steel made wire netting cage and measuring time remaining above the upper part of half part of the cage at observing. A climbing time of apomorphine single administered group is set as 100% and shortened time by administering the drug is shown in suppression rate.

Molecule	Ki [1]	also measured
OC12CC3CC(C1)C(CCN1CC4CCC(CC4)C1)C(C3)C2 (single isomer, unassigned) [Example 2, 3-[2-(5-hydroxy-2-adamantyl)ethyl]-3-azabicyclo[3.2.2] nonane]	0.5 nM	–
ClC12CC3CC(C1)C(CCN1CC4CCC(CC4)C1)C(C3)C2 (single isomer, unassigned) [Example 3, 3-[2-(5-chloro-2-adamantyl)ethyl]-3-azabicyclo[3.2.2] nonane]	0.27 nM	–
COC12CC3CC(C1)C(CCN1CC4CCC(CC4)C1)C(C3)C2 (single isomer, unassigned) [Example 4, 3-[2-(5-methoxy-2-adamantyl)ethyl]-3-azabicyclo[3.2.2] nonane]	1.03 nM	–
OC(CCCN1CCN(c2ncc(F)cn2)CC1)c1ccc(F)cc1 (stereo not drawn) [BMY-14802]	–	affinity to σ-receptor (background, in words) ([2]; prior art): show affinity to σ-receptor
C1CC2CCC1CN(CCC1C3CC4CC(C3)CC1C4)C2 (stereo not drawn) [Example 1, 3-[2-(2-adamantyl)ethyl]-3-azabicyclo[3.2.2] nonane]	0.34 nM	Suppressive rate [3]: 62%
C1CC2CCC1CN(CCC13CC4CC(CC(C4)C1)C3)C2 [Example 5, 3-[2-(1-adamantyl)ethyl]-3-azabicyclo[3.2.2] nonane]	0.19 nM	–
CC12CC3CC(C1)CC(CCN1CC4CCC(CC4)C1)(C3)C2 [Example 6, 3-[2-(3-methyl-l-adamantyl)ethyl]-3-azabicyclo[3.2.2] nonane]	0.45 nM	–
C1C2CC3CC1CC(C2)C3CCN1CC2CC3CC(C2)CC1C3 (stereo not drawn) [Example 7, 4-[2-(2-adamantyl)ethyl]-4-azatricyclo[4.3.1.1^3.8] undecane]	0.26 nM	Suppressive rate [3]: 60%
OC12CC3CC(C1)C(CCN1CC4CC5CC(C4)CC1C5)C(C3)C2 (stereo not drawn) [Example 8, 4-[2-(5-hydroxy-2-adanaantyl)ethyl]-4-azatricyclo[4.3.1.1^3.8] undecane]	1.23 nM	Suppressive rate [3]: 78%
ClC12CC3CC(C1)C(CCN1CC4CC5CC(C4)CC1C5)C(C3)C2 (stereo not drawn) [Example 9, 4-[2-(5-chloro-2-adamantyl)ethyl]-4-azatricyclo[4.3.1.1^3.8] undecane]	0.55 nM	–
COC12CC3CC(C1)C(CCN1CC4CC5CC(C4)CC1C5)C(C3)C2 (stereo not drawn) [Example 10, 4-[2-(5-methoxy-2-adamantyl)ethyl]-4-azatricyclo[4.3.1.1^3.8] undecane]	0.63 nM	–
C1C2CC3CC1CC(C2)N(CCC12CC4CC(CC(C4)C1)C2)C3 [Example 11, 4-[2-(1-adamantyl)ethyl]-4-azatricyclo[4.3.1.1^3.8] undecane]	0.2 nM	–
CC12CC3CC(C1)CC(CCN1CC4CC5CC(C4)CC1C5)(C3)C2 [Example 12]	0.29 nM	–
O=C(CCCN1CCC(O)(c2ccc(Cl)cc2)CC1)c1ccc(F)cc1 [haloperidol]	–	affinity to σ-receptor (background, in words) [2]: bind strongly with σ-receptor
C[C@@H]1CN(CCCn2c3ccccc3c3ccccc32)C[C@H](C)N1 [limcazol]	–	affinity to σ-receptor (background, in words) ([2]; prior art): show affinity to σ-receptor
c1ccc(C2(N3CCCCC3)CCCCC2)cc1 [phencyclidine]	–	affinity to σ-receptor (background, in words) ([2]; prior art): has affinities for σ-receptor
Cc1ccccc1NC(=N)Nc1ccccc1C [radioactive ligand, [^3 H] 1,3-di(2-tolyl) guanidine, reference compound]	–	Kd ([1]; radioactive ligand for σ-receptor, used in Ki calculation, read-out: Kd (concentration of affinity of radioactive ligand for receptor)): 10.6 nM
haloxon	–	affinity to σ-receptor (background, in words) ([2]; prior art): no affinity to σ-receptor
